The text below walks through data of patent US20230263792A1, “USE OF 2,3,5-SUBSTITUTED THIOPHENE COMPOUND FOR PREVENTING, ALLEVIATION, OR TREATING MASTOCYTOSIS” (PHAROS IBIO CO., LTD, priority 2020, published 2023).

SMILES strings stand for the structures.

Experiment [1] relates to HMC-1.2 cell line (imatinib-resistant cell line, having c-kit G560V/D816V mutation). Nature of the experiment: Growth inhibition of mastocytosis cell line HMC-1.2. It counts as cell-based. As to conditions: HMC-1.2, 72 hours. As for the experimental part: [Worded in the source for another cell line; this cell line is reported under the same test.] Specifically, 100 μl of a Ba/F3 cell line with a c-kit D816V mutation (FIG. 1) was added to each well of a 96-well plate at a concentration of 10,000 cells/100 μl. […] As the control compounds, imatinib and sunitinib which are c-kit inhibitors were used.

In experiment [2] the test system is inflammatory response caused by mastocytosis (HMC-1.2 mouse model). Nature of the experiment: Spleen/body weight ratio in mastocytosis mouse model (inflammatory response). Type of experiment: in vivo, NOD SCID female mice. As for the experimental part:
(§1) As mice, 6-8-week-old NOD SCID female mice (18 to 22 g) (GemPharmatech Co., Ltd.) were prepared. Mice were acclimatized for 7 days before use in the experiment, and mice with abnormal health were excluded from the experiment. Mice were bred in a cage (300×180×150 mm) at a 22±3° C. and a relative humidity of 40% to 70% with a 12-hr light/12-hr dark cycle. Mice were allowed access to sterilized dry granular food (Beijing Keaoxieli Feed Co., Ltd., Beijing, China) and water ad libitum for the entire experimental period except for the period specified in the protocol.
50 ml of HMC-1.2 cells suspension-cultured in a 75T flask were placed in a conical tube and centrifuged at 1,200 rpm for 2 minutes, centrifuged with DPBS (Dulbecco's Phosphate-Buffered Saline, Welgene) at 1,200 rpm for 2 minutes, washed, and then suspended in RPMI1640 (Welgene) without antibiotics and fetal bovine serum (FBS). Then, the cells were stained with trypan blue, counted with a hemocytometer, and then HMC-1.2 cells (1×10^6) in a mixture of 0.1 ml L-15 and Matrigel (BD, cat. No. 356234) (1:1) were subcutaneously injected into the right flanks of mice anesthetized by intraperitoneal administration of Avertin (250 mg/kg), thus inducing tumors.
Thereafter, when the average tumor volume reached 150 to 200 mm^3, 4 mice were assigned to each group so that the average tumor volume at each group and treatment time was the same between the groups. Then, each of imatinib at a dose of 90 mg/kg, sunitinib at doses of 20 and 40 mg/kg, and PHI-101 at doses of 7, 20, 40 and 80 mg/kg was administered orally to the mice once daily for 3 weeks. For oral administration, each compound was dissolved in 5% 1-methyl-2-pyrrolidone and then completely mixed in 15% Kolliphor, 30% PEG E400 HS15 and 50% 0.05M citric acid.
Specifically, 3 weeks after administering each drug to the mastocytosis mouse model of Example 3-1, the mice were sacrificed, the body weight and spleen weight were measured using a digital scale, and then the spleen/body weight ratio was calculated.

Experiment [3] concerns neoplastic mast cells exhibiting wild type (wt) KIT or the rarely occurring F522C-mutated variant of KIT. The note with it: literature, background; cited from earlier work.
Experiment [4] relates to HMC-1.2 cells subcutaneous tumor. Nature of the experiment: Tumor growth inhibition in mastocytosis mouse model with HMC-1.2 cell line. It counts as in vivo, NOD SCID female mice. As for the experimental part:
as §1
50 ml of HMC-1.2 cells suspension-cultured in a 75T flask were placed in a conical tube and centrifuged at 1,200 rpm for 2 minutes, centrifuged with DPBS (Dulbecco's Phosphate-Buffered Saline, Welgene) at 1,200 rpm for 2 minutes, washed, and then suspended in RPMI1640 (Welgene) without antibiotics and fetal bovine serum (FBS).
Thereafter, when the average tumor volume reached 150 to 200 mm^3, 4 mice were assigned to each group so that the average tumor volume at each group and treatment time was the same between the groups.
In addition, the width and length of the tumor were measured using a caliper at 3-day intervals, and the tumor volume was calculated using the following equation.
(V: tumor volume, W: tumor width, and L: tumor length)
In addition, the mice were sacrificed 3 weeks after the start of oral administration of each drug and the tumor weight was measured using a digital scale. For each data, one-way ANOVA was used to test the significance of each group.

For experiment [5], the system named is neoplastic mast cells with the c-KIT mutation D816V. As to conditions: literature, background; cited from earlier work.
[6] abbreviates: 90 mg/kg oral once daily for 3 weeks.
The mark [7] stands for this setting: 20 mg/kg oral once daily for 3 weeks.
Where [8] appears, read: 40 mg/kg oral once daily for 3 weeks.

In experiment [1], `Cc1nc(Nc2ncc(C(=O)Nc3c(C)cccc3Cl)s2)cc(N2CCN(CCO)CC2)n1` [Dasatinib] registered a GI50 of 312 nM.
Regarding `Cc1ccc(NC(=O)c2ccc(CN3CCN(C)CC3)cc2)cc1Nc1nccc(-c2cccnc2)n1` [Imatinib, reference compound], in experiment [2] (setting [6]), the “Spleen/body weight ratio % of control” value turned out to be 97.7% and the “Spleen/body weight ratio Inhibition (%)” value was determined as 2.3%. In addition, the “growth of neoplastic mast cells with wt KIT or F522C KIT” value in experiment [3] was “counteract the growth”. In addition, the “Tumor growth inhibition (TGI) (%) Tumor weight” value in experiment [4] (setting [6]) is on record as 7.8%. Moreover, the “growth of neoplastic mast cells with c-KIT D816V” value in experiment [5] is listed as “failed to inhibit the growth”. In experiment [1], this compound returned a GI50 of 17100 nM.
Take `Cc1ccc(C(=O)Nc2ccc(CN3CCN(C)CC3)c(C(F)(F)F)c2)cc1C#Cc1cnc2cccnn12` [Ponatinib]: halving of growth in experiment [1] (GI50) required 194 nM.
For `CCN(CC)CCNC(=O)c1c(C)[nH]c(/C=C2\C(=O)Nc3ccc(F)cc32)c1C` [Sunitinib, reference compound], the figures for the “Spleen/body weight ratio % of control” value in experiment [2] (setting [7]) and in experiment [2] (setting [8]) were 104.3% and 102.7%, respectively. The entries for the “Spleen/body weight ratio Inhibition (%)” value in experiment [2] (setting [7]) and in experiment [2] (setting [8]) were −4.3% and −2.7%, respectively. Moreover, the “Tumor growth inhibition (TGI) (%) Timor volume” value in experiment [4] (setting [7]) was found to be 37.3%; in experiment [4] (setting [8]), 46.2%. For the same compound, the “Tumor growth inhibition (TGI) (%) Tumor weight” value was found to be 49.5% in experiment [4] (setting [7]) and 47.9% in experiment [4] (setting [8]). The compound also showed a GI50 in experiment [1] of 1300 nM.
